Assay results from US10669272B2, “Substituted naphthyridinone compounds useful as T cell activators” (BRISTOL-MYERS SQUIBB COMPANY, priority 2018, dated 2020).
Where two headings read alike, the source gives them in different places.

Legend:
human DGKζ = molecular target: T1, human DGKζ (Homo sapiens, UniProt Q13574); assay: DGKζ LIPGLO assay (extruded liposome substrate), in vitro DGK inhibition; format: biochemical; settings: read-out: DGKz LIPGLO IC50
T1 construct: TVMV protease cleavage site (C); Hexa-His (C); made in house; host or cells: Sf9 insect cells (baculovirus, Bac-to-Bac)
T1 sequence (Q13574 with tags, fused parts or gaps isoform Q13574-4): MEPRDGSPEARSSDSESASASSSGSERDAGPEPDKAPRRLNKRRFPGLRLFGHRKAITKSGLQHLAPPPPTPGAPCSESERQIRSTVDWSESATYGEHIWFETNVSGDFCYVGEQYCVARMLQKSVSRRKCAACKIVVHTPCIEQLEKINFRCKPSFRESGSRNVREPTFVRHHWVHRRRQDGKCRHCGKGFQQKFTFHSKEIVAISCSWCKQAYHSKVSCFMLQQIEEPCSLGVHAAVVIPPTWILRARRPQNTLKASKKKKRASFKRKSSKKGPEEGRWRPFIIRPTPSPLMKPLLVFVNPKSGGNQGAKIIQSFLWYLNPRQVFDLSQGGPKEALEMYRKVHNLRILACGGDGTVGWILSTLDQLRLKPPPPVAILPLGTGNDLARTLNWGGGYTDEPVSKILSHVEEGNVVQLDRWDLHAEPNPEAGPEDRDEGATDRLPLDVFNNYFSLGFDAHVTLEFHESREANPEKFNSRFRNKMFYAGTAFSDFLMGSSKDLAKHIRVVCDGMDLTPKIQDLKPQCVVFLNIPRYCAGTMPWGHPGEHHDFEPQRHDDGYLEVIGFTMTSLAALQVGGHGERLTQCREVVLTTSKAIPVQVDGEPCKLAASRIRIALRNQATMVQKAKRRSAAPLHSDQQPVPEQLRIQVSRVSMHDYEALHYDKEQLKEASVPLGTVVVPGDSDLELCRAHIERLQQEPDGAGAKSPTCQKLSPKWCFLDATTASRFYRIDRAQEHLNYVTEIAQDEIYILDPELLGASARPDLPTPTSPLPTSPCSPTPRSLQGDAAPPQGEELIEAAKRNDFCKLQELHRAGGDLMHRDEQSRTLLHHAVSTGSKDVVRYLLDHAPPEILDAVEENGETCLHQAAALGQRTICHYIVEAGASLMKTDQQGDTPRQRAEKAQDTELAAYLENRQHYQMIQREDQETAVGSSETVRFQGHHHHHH

Human venous whole blood = assay: Human whole blood IFN-γ assay; format: cell-based; settings: human whole blood, read-out: INFg Whole Blood Normalized Agonist EC50;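 note: blood from healthy donors exposed to compound for 1 h before stimulation with anti-CD3 and anti-CD28 at 1 µg/mL each, IFN-γ quantified in supernatant by AlphaLISA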
human DGKα = molecular target: T2, human DGKα (Homo sapiens, UniProt P23743); assay: DGKα LIPGLO assay (extruded liposome substrate), in vitro DGK inhibition; format: biochemical; settings: read-out: DGKa LIPGLO IC50
T2 construct: TVMV protease cleavage site (C); Hexa-His (C); made in house; host or cells: Sf9 insect cells (baculovirus, Bac-to-Bac)
T2 sequence (P23743 with tags, fused parts or gaps): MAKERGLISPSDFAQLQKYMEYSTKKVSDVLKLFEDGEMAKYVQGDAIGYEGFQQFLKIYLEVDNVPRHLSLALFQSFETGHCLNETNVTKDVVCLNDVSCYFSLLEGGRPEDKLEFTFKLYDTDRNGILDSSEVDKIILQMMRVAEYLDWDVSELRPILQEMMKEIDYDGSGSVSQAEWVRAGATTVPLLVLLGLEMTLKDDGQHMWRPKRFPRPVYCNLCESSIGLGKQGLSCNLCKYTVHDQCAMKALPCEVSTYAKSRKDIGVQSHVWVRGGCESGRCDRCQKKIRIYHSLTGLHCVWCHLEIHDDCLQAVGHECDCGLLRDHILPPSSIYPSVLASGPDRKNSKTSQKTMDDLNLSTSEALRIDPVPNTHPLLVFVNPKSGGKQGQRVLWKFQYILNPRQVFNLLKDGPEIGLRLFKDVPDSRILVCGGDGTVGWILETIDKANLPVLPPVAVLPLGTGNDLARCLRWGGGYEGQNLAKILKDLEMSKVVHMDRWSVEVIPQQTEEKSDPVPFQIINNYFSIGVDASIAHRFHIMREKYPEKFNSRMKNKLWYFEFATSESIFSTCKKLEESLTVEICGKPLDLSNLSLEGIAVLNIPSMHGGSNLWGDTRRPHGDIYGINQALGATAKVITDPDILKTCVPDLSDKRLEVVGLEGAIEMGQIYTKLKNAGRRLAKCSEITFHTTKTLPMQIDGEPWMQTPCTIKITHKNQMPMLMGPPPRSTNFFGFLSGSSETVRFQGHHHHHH

[1] = Homo sapiens, 24 h, anti-CD3 plus anti-CD28, 24 hours, 3 μM reference compound = 100% activation
[2] = normalized to 3 μM reference compound with anti-CD3 plus anti-CD28 as 100% activation
[3] = Homo sapiens, 24 h, normalized to 3 μM reference compound with anti-CD3 plus anti-CD28 as 100% activation
[4] = anti-CD3 plus anti-CD28, 24 hours, 3 μM reference compound = 100% activation

Row | IC50 (human DGKζ; DGKζ liposome (LIPGLO) assay) [nM] | IC50 (human DGKα; DGKα liposome (LIPGLO) assay) [nM] | IC50 (human DGKζ; liposome (LIPGLO) assay) [nM] | IC50 (human DGKα; liposome (LIPGLO) assay) [nM] | SMILES | EC50 (Human venous whole blood; [1]) [nM] | EC50 (Human venous whole blood; [2]) [nM] | EC50 (Human venous whole blood; [3]) [nM] | EC50 (Human venous whole blood; [4]) [nM]
1 | 9400 | 660 | – | – | C[C@@H]1CN(c2cc(=O)n(C)c3ccc(C#N)nc23)[C@@H](C)CN1C(c1ccc(F)cc1)c1nnc(C2CC2)[nH]1 (single isomer, unassigned) [Example 766] | 3500 | – | – | –
2 | – | – | 840 | 170 | CC(c1cccc(C(F)(F)F)n1)N1C[C@H](C)N(c2cc(=O)n(C)c3ccc(C#N)nc23)C[C@H]1C (single isomer, unassigned) [Example 637] | – | 10000 | – | –
3 | – | – | 180 | 250 | CC[C@@H]1CN(c2cc(=O)n(C)c3ccc(C#N)nc23)[C@@H](C)CN1C(C)c1ccc(C(F)(F)F)cc1 (single isomer, unassigned) [Example 1093] | – | – | 130 | –
4 | – | – | 34 | 6.2 | CSCC(c1ccc(F)cc1)N1C[C@H](C)N(c2cc(=O)n(C)c3ccc(C#N)nc23)C[C@H]1C (single isomer, unassigned) [Example 1318] | – | – | 88 | –
5 | – | – | 9500 | 2100 | Cn1c(=O)c(C#N)c(N2CCN(C(c3ccc(F)cc3)c3ccc(F)cc3)C(CF)C2)c2nc(Br)ccc21 (stereo not drawn) [Example 9, 4-(4-(bis(4-fluorophenyl)methyl)-3-(fluoromethyl)piperazin-1-yl)-6-bromo-1-methyl-2-oxo-1,2-dihydro-1,5-naphthyridine-3-carbonitrile] | – | – | 1600 | –
6 | 41 | 48 | – | – | C[C@@H]1CN(c2cc(=O)n(C)c3ccc(C#N)nc23)[C@@H](C)CN1C(c1ccc(Br)cc1)c1nc(C2CC2)no1 (stereo partly drawn) [Example 761] | – | – | – | 170
7 | 1800 | 2900 | – | – | C[C@@H]1CN(c2c(C#N)c(=O)n(C)c3ccc(C#N)nc23)CCN1Cc1ccc(F)c(F)c1 [Example 987] | 7300 | – | – | –
8 | 1900 | 190 | – | – | C[C@@H]1CN(c2cc(=O)n(C)c3ccc(C#N)nc23)[C@@H](C)CN1C(c1ccc(F)cc1)c1nc(C2CN(C(=O)OC(C)(C)C)C2)no1 (single isomer, unassigned) [Example 756] | – | – | – | 6000
9 | – | – | 4500 | 7800 | Cc1nccc(C(c2ccc(F)cc2)N2C[C@H](C)N(c3cc(=O)n(C)c4ccc(C#N)nc34)C[C@H]2C)n1 (single isomer, unassigned) [Example 401] | – | 930 | – | –
10 | – | – | 37 | 1100 | CC(c1cccc(OC(F)(F)F)c1F)N1C[C@H](C)N(c2cc(=O)n(C)c3ccc(C#N)nc23)C[C@H]1C (single isomer, unassigned) [Example 1208] | – | 1000 | – | –
11 | 600 | 290 | – | – | CC1CN(C(c2ccc(F)cc2)c2nc(C(C)(C)C)no2)C(C)CN1c1c(C#N)c(=O)n(C)c2ccc(C#N)nc12 (single isomer, unassigned) [Example 862] | 1200 | – | – | –
12 | – | – | 1400 | 980 | CC[C@H]1CN(C(C)c2ccc(F)cc2F)[C@H](C)CN1c1cc(=O)n(C)c2ccc(C#N)nc12 (single isomer, unassigned) [Example 1138] | – | 3700 | – | –
13 | – | – | 26000 | 1500 | CC[C@@H]1CN(c2c(F)c(=O)n(C)c3ccc(C#N)nc23)[C@@H](C)CN1C(C)c1ccc(OC(F)(F)F)cc1 (single isomer, unassigned) [Example 1329] | – | 3600 | – | –
14 | – | – | 510 | 17000 | COc1cccc(C(c2ccc(F)cc2)N2C[C@H](C)N(c3cc(=O)n(C)c4ccc(C#N)nc34)C[C@H]2C)c1 (single isomer, unassigned) [Example 660] | – | – | 660 | –
15 | 13000 | 4900 | – | – | C[C@@H]1CN(c2c(C#N)c(=O)n(C)c3ccc(C#N)nc23)CCN1C(c1ccc(F)cc1)c1ccc(C#N)cc1 (single isomer, unassigned) [Example 920] | – | – | – | 1900
16 | 1200 | 760 | – | – | CC(c1ccc(F)cc1F)N1CCN(c2c(C#N)c(=O)n(C)c3ccc(C#N)nc23)C[C@H]1C (single isomer, unassigned) [Example 969] | – | – | – | 1300
17 | – | – | 13000 | 690 | C[C@@H]1CN(c2cc(=O)n(C)c3ccc(C#N)nc23)[C@@H](C)CN1Cc1ccc(OC(F)(F)F)c(F)c1 [Example 610] | – | – | 1800 | –
18 | 290 | 85 | – | – | C[C@@H]1CN(c2cc(=O)n(C)c3ccc(C#N)nc23)[C@@H](C)CN1C(c1ccc(OC(F)(F)F)cc1)c1nc(C2CC2)no1 (single isomer, unassigned) [Example 759] | – | – | – | 270
19 | – | – | 25 | 52 | CCC(c1ccc(C2CC2)cc1F)N1C[C@H](CC)N(c2cc(=O)n(C)c3ccc(C#N)nc23)C[C@H]1CC (single isomer, unassigned) [Example 1359] | – | 44 | – | –

Row | IC50 (human DGKζ; DGKζ liposome (LIPGLO) assay) [nM] | IC50 (human DGKα; DGKα liposome (LIPGLO) assay) [nM] | IC50 (human DGKζ; liposome (LIPGLO) assay) [nM] | IC50 (human DGKα; liposome (LIPGLO) assay) [nM] | SMILES | EC50 (Human venous whole blood; [1]) [nM] | EC50 (Human venous whole blood; [2]) [nM] | EC50 (Human venous whole blood; [3]) [nM] | EC50 (Human venous whole blood; [4]) [nM]
20 | 11000 | 3000 | – | – | C[C@@H]1CN(c2c(C#N)c(=O)n(C)c3ccc(C#N)nc23)CCN1C(c1ccc(F)cc1)c1ccc(C(F)(F)F)cc1 (single isomer, unassigned) [Example 910] | – | – | – | 20000
21 | – | – | 5900 | 3100 | C[C@@H]1CN(c2cc(=O)n(C)c3ccc(C#N)nc23)[C@@H](C)CN1Cc1ccc(OC(F)(F)F)cc1Br [Example 593] | – | – | 1200 | –
22 | 69 | 300 | – | – | CC(C)c1noc(C(c2ccc(F)cc2)N2C[C@H](C)N(c3cc(=O)n(C)c4ccc(C#N)nc34)C[C@H]2C)n1 (single isomer, unassigned) [Example 747] | – | – | – | 180
23 | – | – | 4900 | 5900 | C[C@@H]1CN(c2cc(=O)n(C)c3ccc(C#N)nc23)[C@@H](C)CN1Cc1cc(-c2ccccc2)no1 [Example 1425] | – | – | 20000 | –
24 | – | – | 59 | 42 | CC[C@H]1CN(C(c2ccc(F)cc2)c2ccc(C(F)(F)F)cn2)[C@H](CC)CN1c1cc(=O)n(C)c2ccc(C#N)nc12 (stereo partly drawn) [Example 1040] | – | 57 | – | –
25 | 47000 | 7300 | – | – | C[C@@H]1CN(c2c(C#N)c(=O)n(C)c3ccc(C#N)nc23)CCN1Cc1ccc(C(C)(C)C)cc1 [Example 1013] | 1400 | – | – | –
26 | – | – | 98 | 22000 | C[C@H]1CN(C(c2ccc(F)cc2)c2ccc(F)cc2)[C@H](CNS(C)(=O)=O)CN1c1cc(=O)n(C)c2ccc(C#N)nc12 [Example 1410, N-(((2S,5S)-1-(bis(4-fluorophenyl)methyl)-4-(6-cyano-1-methyl-2-oxo-1,2-dihydro-1,5-naphthyridin-4-yl)-5-methylpiperazin-2-yl)methyl)methanesulfonamide] | – | – | 1800 | –
27 | – | – | 180 | 680 | CC(c1ccc(F)c(Cl)c1)N1C[C@H](C)N(c2cc(=O)n(C)c3ccc(C#N)nc23)C[C@H]1C (single isomer, unassigned) [Example 1256] | – | 480 | – | –
28 | 3300 | 1200 | – | – | C[C@@H]1CN(c2c(C#N)c(=O)n(C)c3ccc(C#N)nc23)[C@@H](C)CN1C(c1ccc(F)cc1)c1ccccn1 (single isomer, unassigned) [Example 842] | – | – | – | 20000
29 | – | – | 430 | 170 | CC[C@H]1CN(C(c2ccc(Cl)cc2)c2ccc(F)cn2)[C@H](C)CN1c1cc(=O)n(C)c2ccc(C#N)nc12 (single isomer, unassigned) [Example 1130] | – | 280 | – | –
30 | – | – | 380 | 400 | C[C@@H]1CN(c2cc(=O)n(C)c3ccc(C#N)nc23)[C@@H](C)CN1C(c1ccc(F)cc1)c1ccns1 (stereo partly drawn) [Example 719] | – | 500 | – | –
31 | – | – | 63 | 170 | CC[C@H]1CN(C(c2cccc(F)c2)c2ccc(F)cn2)[C@H](CC)CN1c1cc(=O)n(C)c2ccc(C#N)nc12 (single isomer, unassigned) [Example 1042] | – | 130 | – | –
32 | – | – | 4600 | 330 | C[C@@H]1CN(c2cc(=O)n(C)c3ccc(C#N)nc23)[C@@H](C)CN1C(c1ccc(C#N)cc1)c1ccc(F)cn1 (single isomer, unassigned) [Example 463] | – | 3700 | – | –
33 | – | – | 110 | 3800 | COc1cc(C(C)N2C[C@H](C)N(c3cc(=O)n(C)c4ccc(C#N)nc34)C[C@H]2C)ccc1F (single isomer, unassigned) [Example 1231] | – | 1200 | – | –
34 | – | – | 4600 | 90 | C[C@@H]1CN(c2cc(=O)n(C)c3ccc(C#N)nc23)[C@@H](C)CN1C(c1ccc(F)cc1)c1ncco1 (stereo partly drawn) [Example 718] | – | 830 | – | –
35 | – | – | 3200 | 200 | CC(c1ccc(-n2cncn2)cc1)N1C[C@H](C)N(c2cc(=O)n(C)c3ccc(C#N)nc23)C[C@H]1C (single isomer, unassigned) [Example 1238] | – | 9700 | – | –
36 | – | – | 7400 | 5900 | C[C@@H]1CN(c2cc(=O)n(C)c3ccc(C#N)nc23)[C@@H](C)CN1C(c1c(F)cc(O)cc1F)C(F)(F)F (single isomer, unassigned) [Example 628] | – | 4800 | – | –
37 | – | – | 32 | 210 | C[C@@H]1CN(c2cc(=O)n(C)c3ccc(C#N)nc23)[C@@H](C)CN1C(c1ccc(F)cc1)c1nc(C2CC2)cs1 (single isomer, unassigned) [Example 701] | – | 50 | – | –
